Laboratory results from the NIST ThermoML archive (doi:10.1016/j.jct.2012.07.007).
± gives the expanded uncertainty stated by the source.

Details: 101.33 kPa, Liquid; for speed of sound: Linear variable-path acoustic interferometer; for mass density: Vibrating tube method

| Compound | speed of sound (293.15 K) [m/s] | mass density (293.15 K) [kg/m3] | speed of sound (298.15 K) [m/s] | mass density (298.15 K) [kg/m3] | speed of sound (303.15 K) [m/s] | mass density (303.15 K) [kg/m3] | speed of sound (308.15 K) [m/s] | mass density (308.15 K) [kg/m3] |
| --- | --- | --- | --- | --- | --- | --- | --- | --- |
| CCn1cc[n+](C)c1.F[B-](F)(F)F [1-ethyl-3-methylimidazolium tetrafluoroborate] | 1631 ± 2.6 | 1283.89 ± 1.5 | 1619.4 ± 2.6 | 1279.91 ± 1.5 | 1607.6 ± 2.6 | 1276.26 ± 1.5 | 1596.3 ± 2.6 | 1272.07 ± 1.4 |
| Cc1ccccn1 [2-methylpyridine] | 1400.5 ± 2.5 | 944.401 ± 0.77 | 1380.1 ± 2.5 | 939.802 ± 0.77 | 1361 ± 2.5 | 935.117 ± 0.76 | 1339.9 ± 2.5 | 930.414 ± 0.76 |
| Cc1cccnc1 [3-methylpyridine] | 1445.9 ± 1.8 | 956.581 ± 0.23 | 1424 ± 1.8 | 952.002 ± 0.23 | 1404 ± 1.8 | 947.449 ± 0.23 | 1384 ± 1.8 | 942.831 ± 0.23 |
| Cc1ccncc1 [4-methylpyridine] | 1451.1 ± 1.8 | 955.099 ± 0.23 | 1431.5 ± 1.8 | 950.179 ± 0.23 | 1410.7 ± 1.8 | 945.413 ± 0.23 | 1389.9 ± 1.8 | 940.821 ± 0.23 |
| c1ccncc1 [pyridine] | 1442 ± 1.8 | 983.191 ± 0.23 | 1417.8 ± 1.8 | 978.249 ± 0.23 | 1398 ± 1.8 | 973.224 ± 0.23 | 1377.1 ± 1.8 | 968.166 ± 0.23 |
